Like-named read-outs stand apart in the source and are kept apart here.
What was measured:
MDR1 mRNA = MDR1 mRNA expression in Caco-2 cells (qRT-PCR); assay type: cell-based; settings: 48 h pretreatment, bosentan 20 μM, GA 50 μM, PCA 50 μM, PCE 100 mg/ml
Procedure: (§1) After the incubation period, cells were harvested from the Transwell inserts for RNA extraction. […] Real-time quantitative PCR (qRT-PCR) was performed on an ABI Prism 7900HT Sequence Detection System (Applied Biosystems, Foster City, CA, United States) for the analysis of MDR1 and BCRP genes. Primers of housekeeping gene β-actin was used as internal controls. […] The relative gene expression levels were determined using the comparative CT method (ΔΔCT method). The cut-off CT was set at 35 cycles for all analyses. An arbitrary classification system was assigned to the data, designating relative expression levels >2 as high mRNA expression, levels between 2 and 1 as moderate mRNA expression, levels between 1 and 0.1 as low mRNA expression and levels <0.1 as unexpressed.

Caco-2 cells = experiment: Bidirectional transport of ciprofloxacin in Caco-2 cells; assay type: in vitro ADME; settings: GA 50 μM, PCA 50 μM, PCE 100 mg/ml, p < 0.05
Procedure: The Caco-2 cell lines were obtained from the National Collection of Authenticated Cell Cultures (NCACC, Shanghai, China). The bi-directional transport assay was performed on 12-mm Transwell Permeable Supports with 0.4 mm-pore polycarbonate membrane insert and 1.12 cm^2 growth areas. […] The cells were seeded at a density of 3×10^5 cells/well, incubated at 37°C and 5% CO2, and cultured for 21 days with replacement of cell culture medium supplemented with 1% penicillin-streptomycin every second day. Membrane filters were placed in a 12 mm well with 1.5 and 0.5 ml of culture medium in the basolateral and apical compartments, respectively. TEER was measured as an indication of an intact monolayer using a Millicell ERS voltohmmeter (Millipore, Merck). […] Aliquots of 50 μl were collected from the acceptor compartment at 0.5 h. The apparent permeability coefficient (P app) was calculated using the following formula: P app = (dC/dt) × V r/(A × C 0), where dC/dt is the alteration in concentration over time, V r is the volume of the receiver compartment, A is the area of the cell monolayer, and C 0 is the initial concentration in the donor compartment. The permeation of drug from the apical (A) to the basolateral (B) side of the cells (P app,A-B) is compared with the permeation in the opposite direction (P app,B-A).

hOAT1 = biological target: T1, hOAT1 (Homo sapiens, UniProt Q4U2R8); experiment: Inhibition of hOAT1-mediated uptake of 14C-PAH in hOAT1-MDCK cells; assay type: cell-based
T1 construct: host or cells: MDCK
T1 sequence (Q4U2R8 1-563): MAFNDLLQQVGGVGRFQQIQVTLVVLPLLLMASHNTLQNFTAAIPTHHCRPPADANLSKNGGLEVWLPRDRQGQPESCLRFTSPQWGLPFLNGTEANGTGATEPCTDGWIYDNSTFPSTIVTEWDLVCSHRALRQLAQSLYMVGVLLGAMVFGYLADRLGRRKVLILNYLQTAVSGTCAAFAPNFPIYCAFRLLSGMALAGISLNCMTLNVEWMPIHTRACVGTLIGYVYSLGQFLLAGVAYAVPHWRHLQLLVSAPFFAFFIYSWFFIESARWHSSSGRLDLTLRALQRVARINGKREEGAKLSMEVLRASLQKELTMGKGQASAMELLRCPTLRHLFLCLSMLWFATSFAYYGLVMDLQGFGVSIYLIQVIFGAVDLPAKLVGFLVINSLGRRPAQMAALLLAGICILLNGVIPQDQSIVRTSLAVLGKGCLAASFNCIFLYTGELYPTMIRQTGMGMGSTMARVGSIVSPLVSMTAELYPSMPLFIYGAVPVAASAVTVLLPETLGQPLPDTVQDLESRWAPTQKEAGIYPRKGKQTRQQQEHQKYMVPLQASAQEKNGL
Procedure: Stably expressing cell lines of hOAT1-MDCK, hOAT3-MDCK, hOCT2-S2, hMDR1-MDCK, hBCRP-MDCK, and their mock cells were obtained from Japan Fuji Biomedical Co., Ltd. The cells were maintained in DMEM (Sigma) supplemented with 10% FCS, 1% non-essential amino acids (Sigma), and 2% L-glutamine. The medium for the Transwell® plates (Corning Costar, Cambridge, MA, United States) was supplemented with 0.1% gentamicin. Membrane filters were placed in a 12 mm well with 1.5 and 0.5 ml of culture medium in the basolateral and apical compartments, respectively. Cells were cultured at 37°C in an atmosphere of 5% CO2.
Briefly, the hOAT1-MDCK, hOAT3-MDCK, and hOCT2-S2 cells were trypsinized and suspended in the culture medium to provide a density of 1.5 × 10^5 cells/ml. […] After cultivation for 7 days, cells were washed twice and equilibrated for 30 min at 37°C with the pre-warmed HBSS buffer. […] The content of DMSO was below 1% and constant in all inhibition experiments. All experiments were performed in triplicate. The cell lysate and 3.0 ml of aquasol-2 scintillation fluid were put into a scintillation flask. […] IC50 values were determined by employing GraphPad Prism 9.

BCRP mRNA = BCRP mRNA expression in Caco-2 cells (qRT-PCR); assay type: cell-based; settings: 48 h pretreatment, bosentan 20 μM, GA 50 μM, PCA 50 μM, PCE 100 mg/ml
Procedure: as §1

[1] = tested on: Staphylococcus aureus and Escherichia coli; design: method as in Fifere et al., 2022; settings: in vitro, especially that of levofloxacin; ref Fifere et al., 2022; cited from earlier work
[2] = Tissue distribution-based herb-drug interaction study in rats (CIP i.v., PCE i.g.); assay type: in vivo, Sprague-Dawley rats
hOCT2 = biological target: T2, hOCT2 (Homo sapiens, UniProt O15244); experiment: Inhibition of hOCT2-mediated uptake of 14C-TEA in hOCT2-S2 cells; assay type: cell-based; settings: 14C-TEA 5 µM
T2 construct: host or cells: S2
T2 sequence (O15244 1-555): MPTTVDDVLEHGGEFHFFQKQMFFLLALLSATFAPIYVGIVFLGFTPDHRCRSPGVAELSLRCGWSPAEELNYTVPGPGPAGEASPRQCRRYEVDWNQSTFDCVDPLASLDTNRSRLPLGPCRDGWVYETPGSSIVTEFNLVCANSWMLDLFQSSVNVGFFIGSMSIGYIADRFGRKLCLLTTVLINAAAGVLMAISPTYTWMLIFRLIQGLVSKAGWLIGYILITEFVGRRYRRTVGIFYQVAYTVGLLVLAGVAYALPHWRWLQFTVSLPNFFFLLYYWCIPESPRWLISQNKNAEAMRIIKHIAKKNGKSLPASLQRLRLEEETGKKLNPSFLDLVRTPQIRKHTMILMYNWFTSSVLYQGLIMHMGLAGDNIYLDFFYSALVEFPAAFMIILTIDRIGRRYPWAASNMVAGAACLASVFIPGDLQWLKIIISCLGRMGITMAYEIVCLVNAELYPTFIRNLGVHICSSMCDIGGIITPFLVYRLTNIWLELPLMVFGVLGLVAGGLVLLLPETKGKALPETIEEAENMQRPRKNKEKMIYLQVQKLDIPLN
From the text: Considering the relative exposure characteristics, GA and PCA were selected as PK-marker and Q-marker components of PCE in previous studies ([Ma et al., 2015]; [Ma et al., 2016]; [Li et al., 2021b]). In this study, we investigated the concentration-dependent inhibitions of GA and PCA on multiple transporters, including OAT1, OAT3, OCT2, MDR1, and BCRP. Stably expressing cell lines of hOAT1-MDCK, hOAT3-MDCK, hOCT2-S2, hMDR1-MDCK, hBCRP-MDCK, and their mock cells were obtained from Japan Fuji Biomedical Co., Ltd. The cells were maintained in DMEM (Sigma) supplemented with 10% FCS, 1% non-essential amino acids (Sigma), and 2% L-glutamine. The medium for the Transwell® plates (Corning Costar, Cambridge, MA, United States) was supplemented with 0.1% gentamicin. […]
Briefly, the hOAT1-MDCK, hOAT3-MDCK, and hOCT2-S2 cells were trypsinized and suspended in the culture medium to provide a density of 1.5 × 10^5 cells/ml. […] The radioactive intensity of ^14C-PAH, ^3H-ES, and ^14C-TEA was measured using a Tri-Carb 2910TR scintillator (PerkinElmer, United States). Fluorescence was measured at 485 nm (excitation) and 546 nm (emission) for rhodamine 123, and 425 nm (excitation) and 528 nm (emission) for lucifer yellow. IC50 values were determined by employing GraphPad Prism 9.

hMDR1 = biological target: T3, hMDR1 (Homo sapiens, UniProt P08183); experiment: hMDR1-mediated efflux of rhodamine 123 in hMDR1-MDCK cells; assay type: cell-based; settings: for efflux of MDR1-mediated rhodamine 123: concentration range 0.3 to 30 µM; for inhibitory effect on MDR1 activity: hMDR1-MDCK cells, co-incubation 0.3 to 30 µM
T3 construct: host or cells: MDCK
T3 sequence (P08183 whole entry): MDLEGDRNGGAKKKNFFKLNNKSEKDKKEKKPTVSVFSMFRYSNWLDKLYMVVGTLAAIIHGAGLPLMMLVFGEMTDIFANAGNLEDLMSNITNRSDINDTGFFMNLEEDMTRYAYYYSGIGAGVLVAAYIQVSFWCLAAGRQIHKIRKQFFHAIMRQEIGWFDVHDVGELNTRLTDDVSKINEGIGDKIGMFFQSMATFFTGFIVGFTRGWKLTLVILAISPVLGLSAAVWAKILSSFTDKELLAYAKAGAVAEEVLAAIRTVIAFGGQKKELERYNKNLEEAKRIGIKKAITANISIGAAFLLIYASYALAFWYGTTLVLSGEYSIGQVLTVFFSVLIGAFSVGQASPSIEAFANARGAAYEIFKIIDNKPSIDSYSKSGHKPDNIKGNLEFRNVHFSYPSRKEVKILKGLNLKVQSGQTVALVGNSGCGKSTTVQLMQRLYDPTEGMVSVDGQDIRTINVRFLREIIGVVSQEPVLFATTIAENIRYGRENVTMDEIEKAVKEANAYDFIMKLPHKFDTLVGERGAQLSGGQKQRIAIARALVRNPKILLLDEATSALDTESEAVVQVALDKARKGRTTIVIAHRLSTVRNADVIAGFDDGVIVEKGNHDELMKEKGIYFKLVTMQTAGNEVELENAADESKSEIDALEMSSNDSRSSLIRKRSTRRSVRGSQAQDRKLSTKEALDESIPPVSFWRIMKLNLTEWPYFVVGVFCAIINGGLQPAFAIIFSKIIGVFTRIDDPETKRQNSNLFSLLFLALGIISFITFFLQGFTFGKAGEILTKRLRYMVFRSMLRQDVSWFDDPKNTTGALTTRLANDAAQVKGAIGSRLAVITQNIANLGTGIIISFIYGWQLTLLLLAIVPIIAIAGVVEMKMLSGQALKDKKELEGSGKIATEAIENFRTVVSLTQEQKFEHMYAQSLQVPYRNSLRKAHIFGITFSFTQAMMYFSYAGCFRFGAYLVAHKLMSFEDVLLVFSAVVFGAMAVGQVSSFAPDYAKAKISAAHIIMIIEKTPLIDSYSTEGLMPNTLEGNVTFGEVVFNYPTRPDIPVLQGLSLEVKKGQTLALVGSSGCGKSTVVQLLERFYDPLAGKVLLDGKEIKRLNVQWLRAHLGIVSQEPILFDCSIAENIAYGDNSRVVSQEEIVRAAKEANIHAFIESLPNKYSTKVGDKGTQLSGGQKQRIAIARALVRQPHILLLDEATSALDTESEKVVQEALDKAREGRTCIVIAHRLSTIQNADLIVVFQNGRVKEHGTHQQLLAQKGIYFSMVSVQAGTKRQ

Compound	increase of MDR1 (P-gp) mRNA expression (MDR1 mRNA)	change of net efflux ratio of CIP after co-treatment (Caco-2 cells)	IC50 (hOAT1; hOAT1-MDCK cells, 14C-PAH 5 µM)	increase of BCRP mRNA expression (BCRP mRNA)	increase of the antibacterial activity [1]	order of both AUC 0-t and C max in tissues ([2]; CIP + PCE group)	order of both AUC 0-t and C max in tissues ([2]; PCE group)	change of K p by CIP ([2]; each tissue, p > 0.05)	change of AUC 0-t by CIP ([2]; kidney, p < 0.05)	change of C max by CIP ([2]; prostate, p < 0.05)	IC50 (hOCT2)	efflux of MDR1-mediated rhodamine 123 (hMDR1)	inhibitory effect on MDR1 activity (hMDR1)	IC50 (hOAT1)	order of C max in tissues ([2]; CIP + PCE group (PK-marker))	order of C max in tissues ([2]; PCE group)	order of AUC 0-t in tissues ([2]; intragastric PCE in the absence and presence of CIP)	change of C max by CIP ([2]; kidney and heart, p < 0.05)
O=C(O)c1ccc(O)c(O)c1 [PCA, protocatechuic acid]	3.56 fold	significant improvement	29.7 µM	3.33 fold	up to 50%	prostate > SVG > kidney > testis > plasma	SVG > kidney > prostate > testis > spleen	did not significantly alter	decreased	significantly increased	107 µM	concentration-dependent increase	no inhibitory effect	–	–	–	–	–
O=C(O)c1cc(O)c(O)c(O)c1 [GA, Gallic acid]	–	–	–	–	–	–	–	–	–	–	–	concentration-dependent increase	no inhibitory effect	8.01 µM	SVG > prostate > kidney > lung > plasma	SVG > prostate > kidney > plasma > testis	SVG > prostate > kidney > testis > plasma	decreased

Reference: PMC9640990 (Frontiers in Pharmacology, 2022)
